In patent US9260384B2, “Urea compounds and use thereof for inhibiting apoptosis” (Chinese PLA General Hospital, priority 2010, dated 2016):

Experiments:
[1] = tested on: TG-induced cardiomyocytes apoptosis; assay: Protection against TG-induced cardiomyocyte apoptosis (MTT); type: cell-based, Wistar sucking mice
Protocol: The isolation and culture of cardiomyocytes were performed by referring to the differential adhesion method (Kreider, A. Messing, H. Doan, S. U. Kim, R. P. Lisak and D. E. Pleasure, Enrichment of Schwann cell cultures from neonatal rat sciatic nerve by differential adhesion, Brain Res 2 (1981), pp. 433-444). Wistar sucking mice newborn within 24 h were used, sterilized at skin of ventrum with iodine tincture and ethanol, subjected to thoracotomy using scissors at subxiphoid median line with a deviation to left, heart was taken out after slant thoracotomy and placed in PBS precooled with ice; the heart was softly blown and beaten with 0.01M PBS to remove blood cells and other tissues, then cut into pieces with 0.5 mm^3 size, washed with 0.01 M PBS repeatedly for 2-3 times; the pieces were placed in conical flask, added with 4 ml of 0.125% pancretin, 1 ml of 0.1% collagenase II (final concentrations separately being 0.1% and 0.02%), shaken in 37° C. water bath for 10 min, the supernatant was discarded; then 4 ml of 0.125% pancretin and 1 ml of 0.1% collagenase II again, shaken in 37° C. water bath for digestion for 10 min, the supernatant was sucked and transferred to a centrifuge tube, and the supernatant was added with DMEM containing 10% FBS to terminate digestion; the step of shaking and digestion in water bath was repeated for 3-4 times, until the tissue pieces were completely digested; the collected cell suspension was centrifuged under 1000 rpm for 10 min, the supernatant was removed, then a culture medium was added for resuspension; the resuspended cells were inoculated in a cell culture flask, placed in CO2 incubator at 37° C. for incubation for 1.5 h, then the culture medium was sucked out, countered under microscope, then DMEM culture medium containing 10% FBS was used to adjust cell density, inoculated in an amount of 1×10^4 to a 96-well plate, placed in 5% CO2 incubator at 37° C. for 24 h, then half medium was replaced, a culture medium containing 0.1% Brdu was supplementally added; then the medium was replaced once per 48 h, and primary cardiomyocytes were obtained after 4 days of cultivation.
The isolated primary culture of cardiomyocytes was inoculated in an amount of 10^4 cells per well to a 96-well plate, and the volume of each well was 100 ul (marginal wells were filled with sterile PBS). […] The optical density (OD) value of each well was measured at wavelength of 550 nm by enzyme-linked immunoassay instrument, and each well was repeatedly measured for 5 times and the results were recorded. […]

primary cardiomyocytes = assay: Measurement of cell inhibition rate (MTT) on normal primary cardiomyocytes; type: cell-based, neonatal Wistar rats
Protocol: The isolation and culture of cardiomyocytes were performed by referring to the differential adhesion method (Kreider, A. Messing, H. Doan, S. U. Kim, R. P. Lisak and D. E. Pleasure, Enrichment of Schwann cell cultures from neonatal rat sciatic nerve by differential adhesion, Brain Res 2 (1981), pp. 433-444). […]
The isolated primary culture of cardiomyocytes was inoculated in an amount of 10^4 cells per well to a 96-well plate, and the volume of each well was 100 ul (marginal wells were filled with sterile PBS). […] The optical density (OD) value of each well was measured at wavelength of 550 nm by enzyme-linked immunoassay instrument, and each well was repeatedly measured for 5 times and the results were recorded.

`C/C=C(/C)C(=O)O[C@H]1C(C)=C2[C@H]([C@@H]1OC(=O)CCCCCCC)[C@@](C)(OC(C)=O)C[C@H](OC(=O)CCC)[C@@]1(O)[C@H]2OC(=O)[C@@]1(C)O` [TG, thapsigargin, reference compound] was tested. Which “Cardiomyocyte survival rate (%)” value ([1]; TG alone 0.4 uM (apoptosis inducer)) did it give?
Its value is 59 ± 1.1%.

Which “Cardiomyocyte survival rate (%)” value ([1]; TG 0.4 uM + compound 0.3 μM, pretreatment 30 min before TG) does the source give for `O=C(/C=C/c1ccccc1)NC(NC(=O)Nc1cccc2cccnc12)C(Cl)(Cl)Cl` (stereo not shown) [Example 5, (2E)-3-phenyl-N-[1-(8-quinolylamino)formylamino-2,2,2-trichloroethyl]-2-acrylamide] here?
Its value is 79.3 ± 4.6%.

And the “Cardiomyocyte survival rate (%)” value ([1]; TG 0.4 uM + compound 1 μM, pretreatment 30 min before TG)?
Its value is 83.8 ± 8.3%.

And the “Cardiomyocyte survival rate (%)” value ([1]; TG 0.4 uM + compound 3 μM, pretreatment 30 min before TG)?
The value was 84.2 ± 1.1%.

What does the source list for `O=C(/C=C/c1ccccc1)NC(NC(=O)Nc1cccc2cccnc12)C(Cl)(Cl)Cl` (stereo not shown) [Example 1, (2E)-3-phenyl-N-[1-(8-quinolylamino)formylamino-2,2,2-trichloroethyl]-2-acrylamide]?
inhibition at 30 µM (primary cardiomyocytes; Cardiomyocyte, 30 μM compound, 48 h, MTT, cell survival rate = 1 − cell inhibition rate): 9.57 ± 1.62%; inhibition at 300 µM (primary cardiomyocytes; Cardiomyocyte, 300 μM compound, 48 h, MTT, cell survival rate = 1 − cell inhibition rate): 7.78 ± 3.42%; effect on survival rate of normal cardiomyocytes (primary cardiomyocytes; concentration within 300 μM): no effect
